From patent publication US5976797A, “Method for quantifying total mRNA with poly(A)-complementary oligonucleotide-immobilized microtiter plate” (Hitachi Chemical Co., Ltd., priority 1996, dated 1999)
Values after ≈ are worked out from the molar mass of the structure shown.

Experiments:
[1] = test system: U937 cells; experiment: quantification of cytosolic mRNA after PMA-induced differentiation, U937 cells; format: cell-based, human
Excerpt: (§1) We obtained from the respective suppliers human Jurkat, Molt-4, U937, and HL-60 cells (American Type Culture Collection, Rockville, Md.); MICROFAST TRACK™ 228 Kit (mRNA purification kit using oligo-(dT) cellulose, (Invitrogen, San Diego, Calif.); cell culture media, fetal calf serum, (FCS: fatal calf serum), phosphate-buffered saline (PBS: phosphate-buffered saline), rabbit globin mRNA, and vanadyl-ribonucleosidecomplex (VRC: vanadyl-ribonucleoside complex; Gibco-BRL, Baithersburg, Md.); Isolymph (Gallard-Schlesinger, Carle Place, N.Y.); calf thymus DNA (Clontech, Palo Alto, Calif.); DNase (Boehringer Mannheim, Indianapolis, Ind.); RNase (Stratagene, La Jolla, Calif.); and GENEPLATE™ (oligonucleotide-immobilized microplate,(Hitachi Chemical Research Center, Irvine Calif. and Hitachi Chemical Co., Ibaraki, Japan). All other chemicals were purchased from Sigma Chemical Co. (St. Louis, Mis.). Oligonucleotides were synthesized by a synthesizer (Applied Biosystems, San Jose, Calif.), according to the manufacturer's protocol.
(§2) Human Jurkat and Molt-4 cells were grown in RPMI 1640 containing 100 U/mL penicillin, 100 μg/mL streptomycin, and 100 mL/L FCS at 37° C. in CO2 :air, 5:95 (by vol). […] Each cell line was subcultured two to three times a week, and viability was always >90%, as assessed by the exclusion of trypan blue. The number of cells was determined with a hemocytometer. […]

[2] = test system: HL-60 cells; experiment: quantification of cytosolic mRNA after PMA-induced differentiation, HL-60 cells; format: cell-based, human
Excerpt: as §1, §2

[3] = test system: HepG2 human hepatocellular line; experiment: MTT assay, HepG2 cells; format: cell-based; details: mean ± SD, n = 4; for IC50: Homo sapiens
Experimental: (§3) The CaR-1 human colon cancer cell line (JCRB0207) was a gift from Dr. K. Miyazaki (Kihara Institute for Biological Research, Yokohama, Japan). YOYO-1™ was purchased from Molecular Probes (Eugene, Oreg.). All other chemicals were purchased from Sigma (St. Louis, Mis.). Oligonucleotides were synthesized by a synthesizer (Applied Biosystems, San Jose, Calif.) according to the manufacturer's protocol.
(§4) U937, HL-60 and CaR-1 cells were grown in RPMI 1640 containing 50 units/ml penicillin, 50 μg/ml streptomycin, and 10% FCS at 37° C. in 5% CO2, 95% air. HepG2 cells were grown in Eagle's minimum essential medium (MEM) with 0.1 mM nonessential amino acids, 1 mM sodium pyruvate and Earle's balance solution (BSS). Floating cells were subcultured two to three times a week and adherent cells were removed by trypsinization and subcultured two to four times a month. Initial cell viability was always more than 95% as assessed by the exclusion of trypan blue (Ausubel et al., Current Protocols in Molecular Biology, John Wiley & Sons 1988; 11.5.1-11.5.2). The number of cells was determined in a hemocytometer.
(§5) The following drugs have been tested using the reported peak plasma concentrations (PPCs) achieved during intravenous administration of clinical doses (Werner et al., Cancer Treat Rep 1986; 70:1379-1382). […] The drugs were tested at 0.001, 0.01, 0.1, 1.0 and 10× PPC. Vinblastine was occasionally tested at 100× PPC.
(§6) Cells were suspended in medium supplemented with 10% FCS, and 100 μl of single cell suspension containing 1×10^5 cells were added to the individual wells on 96 well microtiter plates. One hundred μl of anticancer drugs were added to each well to give the final concentrations as indicated above. The plates were incubated at 37° C. in a humidified atmosphere containing 5% CO2 in air for various periods. Twenty μl of 0.25% MTT in PBS was added to each well, and plates were incubated for an additional three hours. After centrifugation, supernatant solutions were removed and 200 μl of dimethyl sulfoxide were added to dissolve formazon products, and the plates were shaken for five minutes on a plate shaker (IS-963, Tomy, Palo Alto, Calif.). The absorbance of the well was read on a microplate spectrophotometer (Thermo max, Molecular Device, Mountain View, Calif.) using wavelength at 560 nm.
(§7) Chemosensitivity was assessed for both continuous drug exposure and transient exposure (two hours). Total cytosolic poly(A)+ mRNA was measured as described in the Methods.

[4] = test system: HL-60 human promyelocytic leukemia cell line; experiment: MTT assay, HL-60 cells; format: cell-based; details: mean ± SD, n = 4; for IC50: Homo sapiens, HL-60
Experimental: as §3, §4, §5, §6, §7

[5] = test system: HepG2 human hepatocellular line; experiment: total mRNA assay (GENEPLATE, YOYO-1), HepG2 cells; format: cell-based; details: mean ± SD, n = 4; for IC50: Homo sapiens
Experimental: as §3, §4, §5
(§8) Detailed procedures were described in our previous publication (Tominaga et al., Clin. Chem. 1996; 42:11, 1750-1757). In brief, 1 ml of cell suspension containing 5×10^5 cells were plated to each well of 12-well tissue culture plates for various periods, and each drug was exposed continuously or for two hours. Harvested cultured cells were washed with PBS one to two times. Cells were then resuspended in 200 μl of diethylpyrocarbonate (DEPC) -treated lysis buffer (10 mM Tris, pH7.5, 1 mM EDTA, 0.5M NaCl, 0.5% NP-40 and 20 mM VRC for five minutes on ice, then immediately centrifuged at 15,000 xg at 4° C. for five minutes. Fifty μl each of the supernatant was applied to the GENEPLATE™ (oligonucleotide-immobilized microplate) (Mitsuhashi et al., Nature 1992, 357:519-520). After one hour incubation at room temperature, unbound non-mRNA was removed by aspiration and washed with a low salt buffer (10 mM Tris, pH 7.6, 1 mM EDTA, 0.1 M naCl) three times. Fifty μl of YOYO-1™ in the final dilution of 1:1000 in TAE buffer (40 mM Tris-acetate, pH 8.0, 1 mM EDTA) was added to each well, and the fluorescence intensity of each well was measured by a fluorescent plate reader (CytoFlour™ 2300, Millipore, Bedford, Mass.) with excitation and emission wavelengths of 485 nm (bandwidth 20 nm) and 530 nm (bandwidth 25 nm), respectively, as previously described (Glazer et al., Nature 1992;359:859-861 and Ogura et al., Biotechniques 1994; 18:231-232).
as §7

[6] = test system: CaR-1 human colon cancer cell line; experiment: MTT assay, CaR-1 cells; format: cell-based; details: mean ± SD, n = 4; for IC50: Homo sapiens
Experimental: as §3, §4, §5, §6, §7

[7] = test system: HL-60 human promyelocytic leukemia cell line; experiment: total mRNA assay (GENEPLATE, YOYO-1), HL-60 cells; format: cell-based; details: mean ± SD, n = 4; for IC50: Homo sapiens, HL-60
Experimental: as §3, §4, §5, §8, §7

[8] = test system: U937 human histiocytic lymphomas cell line; experiment: MTT assay, U937 cells; format: cell-based; details: for IC50: Homo sapiens, U-937; for IC50 / IC50 (MTT): mean ± SD, n = 4
Experimental: as §3, §4, §5, §6, §7
(§9) U937 cells were seeded at a density of 1×10^6 cells/ml in RPMI containing 10% FCS in a 96-well plate for MTT assay (.gradient.,.quadrature.) and a 24-well plate for the mRNA assay (.circle-solid.,.tangle-soliddn.). […] The values indicated in the means±standard error of triplicate determinations from a single experiment. Similar results were reproduced in more than three independent experiments (data not shown). […] MTT and mRNA assays were carried out as described in the Methods. The data obtained from the three-day MTT assay with 1× PPC (x-axis) were compared with those of the 12-hour mRNA assay with 10× PPC (y-axis). FIG. 8D (Total) is a mixture of FIGS. 8A-8C. Each point represents the means of triplicate determinations.

[9] = test system: CaR-1 human colon cancer cell line; experiment: total mRNA assay (GENEPLATE, YOYO-1), CaR-1 cells; format: cell-based; details: mean ± SD, n = 4; for IC50: Homo sapiens
Experimental: as §3, §4, §5, §8, §7

[10] = test system: U937 human histiocytic lymphomas cell line; experiment: total mRNA assay (GENEPLATE, YOYO-1), U937 cells; format: cell-based; details: mean ± SD, n = 4; for IC50: Homo sapiens, U-937
Experimental: as §3, §4
The drugs were tested at 0.001, 0.01, 0.1, 1.0 and 10× PPC. Vinblastine was occasionally tested at 100× PPC.
as §8, §7, §9

[11] = 48 h after PMA treatment (160 nmol/L), n=8, P<0.01
[12] = phorbol ester-induced differentiated
[13] = HepG2, continuous exposure, printed 82 hours
[14] = HepG2, transient exposure 2 hours
[15] = HL60, continuous exposure 72 hours
[16] = HL60, transient exposure 2 hours
[17] = CaR-1, continuous exposure 72 hours
[18] = CaR-1, transient exposure 2 hours
[19] = U937, continuous exposure 72 hours
[20] = U937, transient exposure 2 hours

Row | Compound | IC50 [3, 13] | IC50 [3, 14] | IC50 [4, 15] | IC50 [4, 16] | IC50 [5, 13] | IC50 [5, 14] | IC50 [6, 17] | IC50 [6, 18] | IC50 [7, 15] | IC50 [7, 16] | IC50 [8, 19] | IC50 [8, 20] | IC50 [9, 17] | IC50 [9, 18] | IC50 [10, 19] | IC50 [10, 20] | other results
1 | CCCCCCCCCCCCCC(=O)O[C@@H]1[C@@H](C)[C@@]2(O)[C@@H](C=C(CO)C[C@]3(O)C(=O)C(C)=C[C@@H]23)[C@@H]2C(C)(C)[C@]12OC(C)=O [PMA, phorbol 12-myristate 13-acetate] | – | – | – | – | – | – | – | – | – | – | – | – | – | – | – | – | mRNA content in 10^6 differentiated U937 cells [1, 11]: 145.3±13.9 μg/mL; amount of cytosolic mRNA in differentiated U937 cells [1, 12]: 145.3±13.9 ng/10^6 cells; mRNA content in 10^6 differentiated HL-60 cells [2, 11]: 164.7±11.6 μg/mL; amount of cytosolic mRNA in differentiated HL-60 cells [2, 12]: 164.7±11.6 ng/10^6 cells
2 | CC[C@]1(O)C[C@@H]2CN(CCc3c([nH]c4ccccc34)[C@@](C(=O)OC)(c3cc4c(cc3OC)N(C)[C@H]3[C@@](O)(C(=O)OC)[C@H](OC(C)=O)[C@]5(CC)C=CCN6CC[C@]43[C@@H]65)C2)C1 [Vinblastine, vinblastine] | 32.6 ± 8.46 µg/mL (≈ 40.2 µM) | > 50 µg/mL | < 0.0005 µg/mL | 0.026 ± 0.001 µg/mL (≈ 0.0321 µM) | 3.45 ± 0.63 µg/mL (≈ 4.25 µM) | 34.6 ± 1.75 µg/mL (≈ 42.7 µM) | 22.2 ± 14.4 µg/mL (≈ 27.3 µM) | > 50 µg/mL | < 0.0005 µg/mL | 0.031 µg/mL (≈ 0.0382 µM) | < 0.0005 µg/mL | 0.034 ± 0.003 µg/mL (≈ 0.0419 µM) | 34.9 ± 4.8 µg/mL (≈ 43 µM) | > 50 µg/mL | < 0.0005 µg/mL | 0.029 ± 0.001 µg/mL (≈ 0.0358 µM) | –
3 | CO[C@@]12[C@H](COC(N)=O)C3=C(C(=O)C(C)=C(N)C3=O)N1C[C@@H]1N[C@@H]12 [Mitomycin C, mitomycin C] | 2.08 ± 0.09 µg/mL (≈ 6.22 µM) | 24.2 ± 0.81 µg/mL (≈ 72.4 µM) | 0.045 µg/mL (≈ 0.135 µM) | 1.34 ± 0.01 µg/mL (≈ 4.01 µM) | 1.89 ± 0.06 µg/mL (≈ 5.65 µM) | 36.9 µg/mL (≈ 110 µM) | 2.12 ± 0.08 µg/mL (≈ 6.34 µM) | 21.3 µg/mL (≈ 63.7 µM) | 0.22 ± 0.01 µg/mL (≈ 0.658 µM) | 2.29 µg/mL (≈ 6.85 µM) | 0.29 ± 0.01 µg/mL (≈ 0.867 µM) | 2.46 ± 0.04 µg/mL (≈ 7.36 µM) | 2 ± 0.16 µg/mL (≈ 5.98 µM) | 21.3 ± 0.95 µg/mL (≈ 63.7 µM) | 0.23 ± 0.03 µg/mL (≈ 0.688 µM) | 2.01 ± 0.11 µg/mL (≈ 6.01 µM) | –
4 | N.N.[Cl][Pt][Cl] [Cisplatin, cisplatin] | – | – | – | – | – | – | – | – | – | – | – | – | – | – | – | – | IC50 (MTT) [3, 13]: 8.86 ± 0.40 µg/mL; IC50 (MTT) [3, 14]: > 20 µg/mL; IC50 (MTT) [4, 15]: 1.14 ± 0.01 µg/mL; IC50 (MTT) [4, 16]: 12.68 ± 0.30 µg/mL; IC50 (mRNA) [5, 13]: 9.81 ± 0.64 µg/mL; IC50 (mRNA) [5, 14]: > 20 µg/mL; IC50 (MTT) [6, 17]: 3.08 ± 0.54 µg/mL; IC50 (MTT) [6, 18]: > 20 µg/mL; IC50 (mRNA) [7, 15]: 1.21 µg/mL; IC50 (mRNA) [7, 16]: 9.30 µg/mL; time after drug treatment at which similar reduction was observed, MTT assay ([8]; U937, 10× PPC, continuous exposure): 48 h; IC50 (MTT) [8, 19]: 1.77 ± 0.05 µg/mL; IC50 (MTT) [8, 20]: 22.65 ± 0.03 µg/mL; IC50 (mRNA) [9, 17]: 3.09 ± 0.34 µg/mL; IC50 (mRNA) [9, 18]: > 20 µg/mL; IC50 (mRNA) [10, 19]: 1.58 ± 0.39 µg/mL; IC50 (mRNA) [10, 20]: 18.52 ± 4.69 µg/mL
